Measurements reported in ChEMBL document CHEMBL5331073, “Discovery of novel 7,7-dimethyl-6,7-dihydro-5H-pyrrolo[3,4-d]pyrimidines as ATR inhibitors based on structure-based drug design” (Eur J Med Chem, 2023).

Assays:
[1] = target: Serine/threonine-protein kinase ATR (Homo sapiens, UniProt Q13535); assay: Inhibition of ATR (unknown origin) using peptide as substrate preincubated for 10 mins followed by substrate addition by microplate reader analysis
[2] = in vitro; conditions: human, liver microsomes
[3] = in vitro; conditions: rat, liver microsomes
[4] = in vitro; conditions: human, liver microsomes; remark: listed apart in the source
[5] = test system: LoVo; assay: Antiproliferative activity against ATM-deficient human LoVo cells assessed as reduction in cell proliferation incubated for 3 days by MTT assay; assay type: functional, cell-based; conditions: 72 h
[6] = test system: HT-29; assay: Antiproliferative activity against ATM-proficient human HT-29 cells assessed as reduction in cell proliferation incubated for 3 days by MTT assay; assay type: functional, cell-based; conditions: HT-29, 72 h
[7] = in vitro; conditions: human, liver microsomes; remark: listed apart in the source
[8] = in vitro; conditions: rat, liver microsomes; remark: listed apart in the source
[9] = in vitro; conditions: rat, liver microsomes; remark: listed apart in the source
[10] = test system: LoVo; assay: Antiproliferative activity against ATM-deficient human LoVo cells assessed as reduction in cell proliferation at 0.2 uM incubated for 3 days by MTT assay; assay type: functional; parameters: scale not given: the % may be the effect or the level left; conditions: time 3 day

Serine/threonine-protein kinase ATR, sequence (Q13535 whole entry): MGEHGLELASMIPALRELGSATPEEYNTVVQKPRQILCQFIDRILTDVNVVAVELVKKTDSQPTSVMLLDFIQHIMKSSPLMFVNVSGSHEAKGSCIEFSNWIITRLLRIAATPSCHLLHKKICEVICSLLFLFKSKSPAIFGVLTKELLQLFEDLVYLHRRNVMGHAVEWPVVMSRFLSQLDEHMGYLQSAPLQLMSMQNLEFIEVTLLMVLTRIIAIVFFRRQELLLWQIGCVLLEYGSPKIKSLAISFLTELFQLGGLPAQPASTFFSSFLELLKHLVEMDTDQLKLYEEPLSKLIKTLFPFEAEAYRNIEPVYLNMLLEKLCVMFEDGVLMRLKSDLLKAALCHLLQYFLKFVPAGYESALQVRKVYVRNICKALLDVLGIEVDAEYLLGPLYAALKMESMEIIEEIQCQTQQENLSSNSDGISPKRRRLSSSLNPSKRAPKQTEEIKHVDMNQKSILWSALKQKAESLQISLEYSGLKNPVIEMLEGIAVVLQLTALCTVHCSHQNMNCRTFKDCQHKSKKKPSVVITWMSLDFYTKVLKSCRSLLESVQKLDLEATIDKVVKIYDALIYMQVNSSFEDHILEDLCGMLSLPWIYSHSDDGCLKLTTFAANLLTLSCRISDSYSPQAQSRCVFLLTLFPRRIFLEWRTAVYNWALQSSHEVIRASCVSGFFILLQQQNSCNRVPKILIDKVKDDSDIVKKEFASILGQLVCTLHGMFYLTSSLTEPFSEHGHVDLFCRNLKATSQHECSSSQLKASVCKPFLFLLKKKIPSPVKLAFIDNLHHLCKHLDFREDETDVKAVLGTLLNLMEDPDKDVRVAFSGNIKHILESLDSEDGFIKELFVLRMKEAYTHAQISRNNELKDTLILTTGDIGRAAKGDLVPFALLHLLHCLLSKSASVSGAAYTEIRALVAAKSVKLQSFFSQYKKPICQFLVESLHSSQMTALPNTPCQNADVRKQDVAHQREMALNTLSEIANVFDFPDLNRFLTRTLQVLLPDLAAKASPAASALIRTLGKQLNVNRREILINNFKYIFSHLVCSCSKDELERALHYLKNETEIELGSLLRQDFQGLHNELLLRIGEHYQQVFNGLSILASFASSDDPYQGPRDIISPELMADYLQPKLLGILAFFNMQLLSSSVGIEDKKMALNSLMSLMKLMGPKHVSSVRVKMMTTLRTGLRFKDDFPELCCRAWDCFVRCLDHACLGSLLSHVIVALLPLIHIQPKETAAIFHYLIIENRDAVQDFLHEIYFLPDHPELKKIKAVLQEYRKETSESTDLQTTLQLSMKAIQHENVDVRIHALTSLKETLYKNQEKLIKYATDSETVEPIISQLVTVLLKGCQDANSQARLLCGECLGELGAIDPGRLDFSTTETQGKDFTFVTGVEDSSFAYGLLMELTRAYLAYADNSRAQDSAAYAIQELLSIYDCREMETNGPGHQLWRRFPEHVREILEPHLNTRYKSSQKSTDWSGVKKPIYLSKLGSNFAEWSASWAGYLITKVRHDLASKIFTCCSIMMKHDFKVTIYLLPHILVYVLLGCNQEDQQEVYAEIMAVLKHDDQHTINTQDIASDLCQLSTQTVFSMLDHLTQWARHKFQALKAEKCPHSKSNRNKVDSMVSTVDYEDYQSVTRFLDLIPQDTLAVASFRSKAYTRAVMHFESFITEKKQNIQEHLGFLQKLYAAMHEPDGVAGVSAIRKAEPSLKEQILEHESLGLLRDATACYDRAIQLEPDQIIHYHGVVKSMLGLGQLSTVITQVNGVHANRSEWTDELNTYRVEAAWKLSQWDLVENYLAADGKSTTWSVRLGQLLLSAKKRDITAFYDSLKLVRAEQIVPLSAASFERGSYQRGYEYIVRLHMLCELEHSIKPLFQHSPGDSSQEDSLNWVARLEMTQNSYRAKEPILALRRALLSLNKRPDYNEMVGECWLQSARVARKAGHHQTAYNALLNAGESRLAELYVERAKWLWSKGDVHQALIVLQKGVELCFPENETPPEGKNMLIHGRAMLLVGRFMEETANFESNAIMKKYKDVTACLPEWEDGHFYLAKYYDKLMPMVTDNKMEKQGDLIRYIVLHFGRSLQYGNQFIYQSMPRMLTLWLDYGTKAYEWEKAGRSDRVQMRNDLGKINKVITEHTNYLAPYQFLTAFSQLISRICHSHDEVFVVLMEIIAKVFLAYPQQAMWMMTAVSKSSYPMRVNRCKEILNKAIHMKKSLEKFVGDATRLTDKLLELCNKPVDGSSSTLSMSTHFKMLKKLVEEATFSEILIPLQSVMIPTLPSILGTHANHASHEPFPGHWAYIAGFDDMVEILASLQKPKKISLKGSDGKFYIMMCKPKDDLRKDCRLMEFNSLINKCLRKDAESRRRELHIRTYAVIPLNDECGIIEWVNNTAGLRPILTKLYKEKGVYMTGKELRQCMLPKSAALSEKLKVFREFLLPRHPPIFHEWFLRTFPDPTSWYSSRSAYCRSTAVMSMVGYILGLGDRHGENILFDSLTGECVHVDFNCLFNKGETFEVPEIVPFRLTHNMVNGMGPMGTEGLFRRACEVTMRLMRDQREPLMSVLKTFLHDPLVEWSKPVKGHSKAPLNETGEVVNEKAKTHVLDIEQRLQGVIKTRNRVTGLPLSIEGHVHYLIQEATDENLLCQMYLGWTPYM

SMILES	IC50 [1] [nM]	also measured
CC(=O)N1CCc2c(nc(-c3cccc4[nH]ccc34)nc2N2CCOC[C@H]2C)C1	29	
C[C@@H]1COCCN1c1nc(-c2cccc3[nH]ccc23)nc2c1CCN(C(=O)c1cccc(F)c1)C2(C)C	14	CLint scaled at 1 h, 1 µM [2]: 169 mL/min/kg; half-life at 1 h, 1 µM [3]: 23.4 min; microsomal CLint at 1 h, 1 µM [4]: 179 µL/min/mg; IC50 [5]: 964 nM; IC50 [6]: 2580 nM; half-life at 1 h, 1 µM [7]: 7.76 min; microsomal CLint at 1 h, 1 µM [8]: 59.6 µL/min/mg; CLint scaled at 1 h, 1 µM [9]: 107 mL/min/kg
C[C@@H]1COCCN1c1nc(-c2cccc3[nH]ccc23)nc2c1CCN(C(=O)C1CC1)C2	14	
C[C@@H]1COCCN1c1nc(-c2cccc3[nH]ccc23)nc2c1CCN(C(=O)Cc1ccccc1)C2(C)C	22	
CC(C)C(=O)N1CCc2c(N3CCOC[C@H]3C)nc(-c3cccc4[nH]ccc34)nc2C12CCC2	29	
C[C@@H]1COCCN1c1nc(-c2cccc3[nH]ccc23)nc2c1CCN(C(=O)C1CCC1)C2(C)C	17	
COc1ccc(C(=O)N2CCc3c(N4CCOC[C@H]4C)nc(-c4cccc5[nH]ccc45)nc3C2(C)C)cc1	9	
CCC(=O)N1CCc2c(nc(-c3cccc4[nH]ccc34)nc2N2CCOC[C@H]2C)C1	38	
CC(C)C(=O)N1CCc2nc(-c3cccc4[nH]ccc34)nc(N3CCOC[C@H]3C)c2C1	> 100	
CC(C)C(=O)N1CCc2c(N3CCOC[C@H]3C)nc(-c3cccc4[nH]ccc34)nc2C1(C)C	10	CLint scaled at 1 h, 1 µM [2]: 466 mL/min/kg; half-life at 1 h, 1 µM [3]: 10.9 min; microsomal CLint at 1 h, 1 µM [4]: 493 µL/min/mg; IC50 [5]: 1120 nM; IC50 [6]: 4310 nM; half-life at 1 h, 1 µM [7]: 2.82 min; microsomal CLint at 1 h, 1 µM [8]: 129 µL/min/mg; CLint scaled at 1 h, 1 µM [9]: 232 mL/min/kg
C=CC(=O)N1CCc2c(N3CCOC[C@H]3C)nc(-c3cccc4[nH]ccc34)nc2C1(C)C	6	
C[C@@H]1COCCN1c1nc(-c2cccc3[nH]ccc23)nc2c1CCN(C(=O)C(C)(C)C)C2(C)C	17	
C[C@@H]1COCCN1c1nc(-c2cccc3[nH]ccc23)nc2c1CCN(C(=O)C1CC1)C21CCC1	28	
C[C@@H]1COCCN1c1nc(-c2cccc3[nH]ccc23)nc2c1CN(C(=O)c1ccc3c(c1)OCCO3)C2(C)C	4	IC50 [5]: 147 nM; IC50 [6]: 487 nM
CC(=O)N1CCc2nc(-c3cccc4[nH]ccc34)nc(N3CCOC[C@H]3C)c2C1	> 100	
COc1cccc(C(=O)N2CCc3c(nc(-c4cccc5[nH]ccc45)nc3N3CCOC[C@H]3C)C2)c1	76	
COc1ccc(C(=O)N2CCc3c(N4CCOC[C@H]4C)nc(-c4cccc5[nH]ccc45)nc3C23CCC3)cc1	> 100	
COc1ccc(C(=O)N2CCc3nc(-c4cccc5[nH]ccc45)nc(N4CCOC[C@H]4C)c3C2)cc1	> 1100	
COc1cccc(C(=O)N2CCc3nc(-c4cccc5[nH]ccc45)nc(N4CCOC[C@H]4C)c3C2)c1	> 100	
COc1cc(C(=O)N2Cc3c(N4CCOC[C@H]4C)nc(-c4cccc5[nH]ccc45)nc3C2(C)C)cc(OC)c1OC	19	
C[C@@H]1COCCN1c1nc(-c2cccc3[nH]ccc23)nc2c1CN(C(=O)C1CC1)C2(C)C	8	Activity [10]: <45%
C[C@@H]1COCCN1c1nc(-c2cccc3[nH]ccc23)nc2c1CCN(C(=O)c1cccc(C(F)(F)F)c1)C2(C)C	72	
C[C@@H]1COCCN1c1nc(-c2cccc3[nH]ccc23)nc2c1CCN(C(=O)CN(C)C)C2(C)C	32	
COc1cccc(C(=O)N2CCc3c(N4CCOC[C@H]4C)nc(-c4cccc5[nH]ccc45)nc3C23CCC3)c1	> 100	
COC(=O)N1CCc2c(N3CCOC[C@H]3C)nc(-c3cccc4[nH]ccc34)nc2C1(C)C	18	
